Reference: patent US5545738A, “Alfuzosin hydrochloride dihydrate” (Synthelabo, priority 1993, dated 1996)
Counter-ions that a name gives are not always drawn. Blank lines part the entries; values can stand above or below the compound they belong to.

Columns and labels:
[1] = Drying Test (moisture content and crystal state under drying conditions); format: physicochemical; conditions: for loss of water: 1 day
Protocol: The moisture content was measured with Karl Fischer Aquameter (Kyoto Electron Industry, MK-AII) for about 100 mg of a sample dissolved in methanol for moisture measurement. In turn, the dehydration behavior of the crystal water was measured by thermogravimetry and differential thermal analysis using TG/DTA200 thermogravimetric apparatus and SSC5030 Disc Station (Seiko). Concretely, approximately 5 mg of a sample was weighed into an open aluminum pan and analyzed at a rate of temperature increase of 10° C./m or 1° C./m. This analysis was carried out in a nitrogen atmosphere (flow rate: 100 ml/m).
Different from the hygroscopicity test mentioned above, the various hydrates of alfuzosin hydrochloride were kept under drying conditions for the monitoring of the change in moisture content.
In this connection, simultaneously in the present test, also the crystal state of dried samples after a three-days' drying was investigated for the dihydrate of the present invention by X-ray powder diffraction under drying conditions, for comparison with patterns of X-ray powder diffraction under normal conditions.

[2] = overall stability of crystal forms (tests 1-4); format: physicochemical; conditions: normal preservation (25° C., RH 40-80%) and heating (50°-60° C.); Hydrochloride Dihydrate
[3] = Accelerated Test (100 °C and 120 °C, X-ray powder diffraction); format: physicochemical; conditions: for crystal form change: 2 hours
Protocol: A 0.3 g-portion of each of the hydrates of alfuzosin hydrochloride was preserved in heaters (Sanyo) set to 100° C. and 120° C., for the confirmation of the stability of the respective hydrates. The physical stability of the respective samples was confirmed by X-ray powder diffraction.
In this test, the crystal state of the respective hydrates was monitored by X-ray powder diffraction every 30 minutes for 2 hours.

[4] = Test on Stability to Heating, Humidifying and Light; format: physicochemical; conditions: for stability, overall: conditions of table 1; for moisture content of crystal form: initial, before test
Protocol: The stability test was carried out following the procedures described below.
A 0.3 g-portion of each of the anhydrous form and respective hydrates of alfuzosin hydrochloride in crystal forms was placed in a glass bottle (sealed) and in a desiccator filled with a NaCl saturated solution, and preserved at 70° C. with a heater (Toyama Industry), after which the physicochemical stability of each compound was evaluated by X-ray powder diffraction and high performance liquid chromatography (HPLC).
Separately, 0.3 g of each of the anhydrous form and respective hydrates of alfuzosin hydrochloride in crystal forms was placed in a plastic dish which was then covered with a polyvinylidene chloride film, followed by irradiation with a chemical lamp (dominant wavelength: 365 nm) for 24 hours, for the evaluation of the light stability in the same manner as in the above.
HPLC apparatus (manufactured by Shimazu)
Detection with UV (at 254 nm); column (Nucleosil 5C18, 150 mm×4 mm, M, Nagel; flow rate 1.0 ml/m; room temperature; eluent, NaClO4 (in 1000 ml of water, 7 g, pH 3.5)- acetonitrile-THF (155:55:45): internal standard, p-chloroacetanilide (0.5 mg/ml).

[5] = Accelerated Test (100 °C and 120 °C, X-ray powder diffraction); format: physicochemical; conditions: 45 min.
[6] = Hygroscopicity Test (25 °C, various relative humidities, 10 days); format: physicochemical
Protocol: A 0.2 g-portion of a sample of each of the anhydrous form and respective hydrates of alfuzosin hydrochloride was placed in a desiccator containing a saturated solution of the salts listed hereunder (at 25° C.), and the relationship between the relative humidity at which the hydrated states of the respective compounds become. stable physically and the hygroscopicity of polymorphic hydrated forms of those compounds was investigated. The respective samples were brought to equilibrium by storage for 10 days under the respective conditions. For the setting up of the relative humidity (RH: %) was used a saturated solution of salts listed below:
RH 0%, dry P2 O5; RH 11%, LiCl; RH 22%, CH3 COOK; RH 33%, MgCl2; RH 43%, K2 CO3.2H2 O; RH 53%, Mg(NO3)2; RH 64%, CoCl2.6H2 O; RH 75%, NaCl; RH 84%, KCl; RH 93%, KNO3; RH 100%, water.

α1 -adrenergic receptor = conditions: cited from earlier work
[7] = Chemical lamp (365 nm), 24 hours
[8] = after 70° C., 9 days at RH 75%, hydrochloride
[9] = after 70° C., 9 days, hydrochloride
[10] = after chemical lamp (365 nm), 24 hours, hydrochloride

Compound: COc1cc2nc(N(C)CCCNC(=O)C3CCCO3)nc(N)c2cc1OC (centres unmarked) [Anhydrous, anhydrous alfuzosin hydrochloride]
relative humidity at which stable ([6]; 25° C., 10 days): ≤ 75%
equilibrium moisture content ([6]; RH over 75%, 25° C.): 12%
moisture content change at RH over 75% ([6]; RH over 75%, 25° C.): increased significantly
moisture content, equivalent moles of water ([6]; equilibrium, RH over 75%, 25° C.): 3 moles of water
crystal form change on preservation ([6]; relative humidity exceeding 75%): the crystal structure of the anhydrous formchanges, thereby providing a trihydrate
stability ([4]; 70° C., 9 days): Stable
stability ([4]; 70° C., 9 days at RH 75%): Stable
stability [4, 7]: Stable
moisture content [4, 8]: 0.7%
moisture content [4, 9]: 1.33%
moisture content [4, 10]: 0.66%
stability, overall ([4]; listed as anhydrous form, hydrochloride): extremely stable
moisture content of crystal form ([4]; hydrochloride): 0.1%

Compound: COc1cc2nc(N(C)CCCNC(=O)C3CCCO3)nc(N)c2cc1OC (centres unmarked) [alfuzosin hydrochloride]
α1 -adrenergic receptor antagonism (α1 -adrenergic receptor): antagonist of α1 -adrenergic receptor

Second part, led by results:

dehydration process ([1]; drying conditions): goes very slowly
relative stability among crystal forms [2]: the stablest crystal form
time stable ([3]; 100° C.): ≥ 2 h
time stable ([3]; 120° C.): ≥ 0.75 h
stability ([4]; 70° C., 9 days): Stable
stability ([4]; 70° C., 9 days at RH 75%): Stable
stability [4, 7]: Stable
moisture content ([4]; after 70° C., 9 days at RH 75%, Hydrochloride Dihydrate): 8.48%
moisture content ([4]; after 70° C., 9 days, Hydrochloride Dihydrate): 8.41%
moisture content ([4]; after chemical lamp (365 nm), 24 hours, Hydrochloride Dihydrate): 8.40%
stability, overall ([4]; Hydrochloride Dihydrate): extremely stable
moisture content of crystal form ([4]; Hydrochloride Dihydrate): 8.14%
Compound: COc1cc2nc(N(C)CCCNC(=O)C3CCCO3)nc(N)c2cc1OC (centres unmarked) [Dihydrate (DI), Alfuzosin Hydrochloride Dihydrate]
change in moisture content ([1]; drying conditions, 3 days): no significant change in moisture content
crystal form after drying ([1]; three-days' drying, X-ray powder diffraction): retains its original crystal form, with some drop in degree of crystallization

loss of water ([1]; drying conditions): lost most of the water in 1 day
crystal form ([5]; hydrochloride): AN + DI + TRI
crystal form ([3]; 100° C., 30 min., hydrochloride): TRI
crystal form ([3]; 100° C., 60 min., hydrochloride): TRI + DI
crystal form ([3]; 100° C., 90 min., hydrochloride): TRI + DI
crystal form ([3]; 100° C., 120 min., hydrochloride): TRI + DI
crystal form change ([3]; 100° C.): changed into the dihydrate by degrees
TRI content ([4]; 70° C., 9 days): 68%
TRI content ([4]; 70° C., 9 days at RH 75%): 84%
DI content ([4]; 70° C., 9 days at RH 75%, hydrochloride): 16%
DI content ([4]; 70° C., 9 days, hydrochloride): 37%
stability [4, 7]: Stable
moisture content [4, 8]: 12.03%
moisture content [4, 9]: 11.05%
moisture content [4, 10]: 12.87%
moisture content of crystal form ([4]; hydrochloride): 12.75%
Compound: COc1cc2nc(N(C)CCCNC(=O)C3CCCO3)nc(N)c2cc1OC (centres unmarked) [Trihydrate (TRI), trihydrate of alfuzosin hydrochloride]
crystal form change ([5]; hydrochloride): changed into a mixture of the anhydrous form, dihydrate and trihydrate
stability, overall ([4]; hydrochloride): changed partially into the dihydrate, so they are considered unstable

loss of water ([1]; drying conditions): lost most of the water in 1 day
crystal form change [5]: changed into the dihydrate
crystal form ([3]; 100° C., 30 min.): TETRA + DI
crystal form change ([3]; 100° C.): changed into the dihydrate by degrees
DI content ([4]; 70° C., 9 days): 26%
TETRA content ([4]; 70° C., 9 days): 74%
DI content ([4]; 70° C., 9 days at RH 75%): 98%
TETRA content ([4]; 70° C., 9 days at RH 75%): 2%
moisture content ([4]; after 70° C., 9 days): 13.19%
moisture content ([4]; after 70° C., 9 days at RH 75%): 8.25%
moisture content ([4]; after chemical lamp (365 nm), 24 hours): 15.18%
moisture content of crystal form [4]: 14.93%
Compound: COc1cc2nc(N(C)CCCNC(=O)C3CCCO3)nc(N)c2cc1OC (centres unmarked) [Tetrahydrate (TETRA), alfuzosin hydrochloride tetrahydrate]
stability, overall [4]: changed partially into the dihydrate, so they are considered unstable
